≈ marks a conversion by molar mass, not a printed value. Calls of active or inactive are those of the source. The calls are words filed in the database; no cut-off is given here. Non-standard residues stand in square brackets, D forms with d. Residues, ends and D or L forms follow the SMILES beside them. *: point of attachment. X1 = F[B-]1(F)n2c(ccc2*)C=C2C=CC=[N+]21; Cit = NC(=O)NCCC[C@H](N)C(=O)O

In data set [1] the test system is Escherichia coli. Nature of the data set: Bactericidal activity against delta-waaG deletion mutant containing wild type Escherichia coli BW25113 assessed as bacterial killing at 4 uM incubated for 3.5 hrs. In kind it is functional, organism-based.
Data set [2] concerns Escherichia coli. The data set is described as follows: Antimicrobial activity against O-antigen lacking LPS containing wild type Escherichia coli BW25113 incubated for 18 hrs at 37 degC by broth microdilution method. Conditions: BW25113, 18 h. The data set is classed as functional. (Dilution methods test growth across graded concentrations, often in twofold steps.)
Data set [3] deals with Escherichia coli. The data set is described as follows: Antimicrobial activity against delta-sbmA deletion mutant containing Escherichia coli BW25113 incubated for 18 hrs at 37 degC by broth microdilution method. In kind it is functional. Particulars: BW25113, 18 h.
The subject of data set [4] is Escherichia coli. Nature of the data set: Drug uptake in O-antigen lacking LPS containing wild type Escherichia coli BW25113 up to 32 uM incubated for 60 mins by propidium iodide staining based cytofluorimetric method. Particulars: in vivo, 1 h. In kind it is ADME, organism-based.
The test system of data set [5] is Escherichia coli. Nature of the data set: Bactericidal activity against O-antigen lacking LPS containing wild type Escherichia coli BW25113 assessed as bacterial killing at 4 uM incubated for 3.5 hrs. In kind it is functional, organism-based.
Data set [6] concerns Escherichia coli. Nature of the data set: Antimicrobial activity against delta-waaG deletion mutant containing Escherichia coli BW25113 incubated for 18 hrs at 37 degC by broth microdilution method. In kind it is functional. Particulars: BW25113, 18 h.
The subject of data set [7] is Escherichia coli. The data set is described as follows: Antimicrobial activity against Escherichia coli ATCC 25922 incubated for 18 hrs at 37 degC by broth microdilution method. The data set is classed as functional. Particulars: ATCC 25922, 18 h.
For data set [8], the system named is Escherichia coli. The data set is described as follows: Antimicrobial activity against Escherichia coli HB101 incubated for 18 hrs at 37 degC by broth microdilution method. Particulars: HB101, 18 h. The data set is classed as functional.
Data set [9] has as its system Escherichia coli. Nature of the data set: Drug uptake in O-antigen lacking LPS containing wild type Escherichia coli BW25113 at 1 uM up to 3.5 hrs in presence of trypan blue quencher. The data set is classed as ADME, organism-based. Particulars: in vivo.
Data set [10] relates to Escherichia coli. The data set is described as follows: Drug uptake in delta-waaG deletion mutant containing Escherichia coli BW25113 at 4 uM up to 3.5 hrs in presence of trypan blue quencher. Particulars: in vivo. In kind it is ADME, organism-based.
Data set [11] relates to Escherichia coli. Nature of the data set: Drug uptake in Escherichia coli ATCC 25922 assessed as mean fluorescence intensity using BODIPY-labeled compound at 0.25 to 4 uM incubated for 60 mins in presence of trypan blue quencher by flow cytometry. In kind it is ADME, organism-based. Conditions: in vivo, 1 h. (In general: Flow cytometry measures light scatter and fluorescence of single cells or particles in a stream.)

Data set [12] concerns Escherichia coli. Nature of the data set: Drug uptake in Escherichia coli ATCC 25922 assessed as mean fluorescence intensity using BODIPY-labeled compound at 0.25 uM incubated for 10 mins by confocal microscopy. In kind it is ADME, organism-based. Particulars: in vivo.
In data set [13] the test system is Escherichia coli. The data set is described as follows: Drug uptake in Escherichia coli ATCC 25922 assessed as mean fluorescence intensity using BODIPY-labeled compound at 0.25 to 4 uM incubated for 10 mins by flow cytometry. In kind it is ADME, organism-based. Conditions: in vivo.
The subject of data set [14] is Escherichia coli. The data set is described as follows: Drug uptake in Escherichia coli ATCC 25922 assessed as mean fluorescence intensity using BODIPY-labeled compound at 0.25 to 4 uM incubated for 60 mins by flow cytometry. Conditions: in vivo, 1 h. In kind it is ADME, organism-based.
Data set [15] relates to Escherichia coli. Nature of the data set: Drug uptake in Escherichia coli ATCC 25922 assessed as mean fluorescence intensity using BODIPY-labeled compound at 0.25 to 4 uM incubated for 10 mins in presence of trypan blue quencher by flow cytometry. The data set is classed as ADME, organism-based. Conditions: in vivo.
The test system of data set [16] is Escherichia coli. The data set is described as follows: Bacteriostatic activity against O-antigen lacking LPS containing wild type Escherichia coli BW25113 at 4 uM incubated for 3.5 hrs. In kind it is functional, organism-based.
Data set [17] concerns Escherichia coli. The data set is described as follows: Bacteriostatic activity against delta-waaG deletion mutant containing wild type Escherichia coli BW25113 at 4 uM incubated for 3.5 hrs. In kind it is functional, organism-based.

In the case of `CC[C@H](C)[C@H](NC(=O)[C@H](CCCNC(=N)N)NC(=O)[C@@H](N)CCCNC(=N)N)C(=O)N[C@@H](CCCNC(=N)N)C(=O)N1CCC[C@H]1C(=O)N[C@@H](CCCNC(=N)N)C(=O)N1CCC[C@H]1C(=O)N1CCC[C@H]1C(=O)N[C@@H](CCCNC(=N)N)C(=O)N[C@@H](CC(C)C)C(=O)N1CCC[C@H]1C(=O)N[C@@H](CCCNC(=N)N)C(=O)N1CCC[C@H]1C(=O)N[C@@H](CCCNC(=N)N)C(=O)N1CCC[C@H]1C(=O)N[C@@H](CCCNC(=N)N)C(=O)N1CCC[C@H]1C(=O)N[C@@H](CC(C)C)C(=O)N1CCC[C@H]1C(=O)N[C@@H](Cc1ccc(O)cc1)C(=O)N1CCC[C@H]1C(=O)N[C@@H](CCCNC(=N)N)C(=O)N1CCC[C@H]1C(=O)O`, the result in [1] and in [5] was Active. The MIC is 1 µM (≈ 2.9 µg/mL) in data set [2]; 8 µM (≈ 23.2 µg/mL) in data set [3]; 0.5 µM (≈ 1.45 µg/mL) in [6]; 0.5 µM (≈ 1.45 µg/mL) in data set [7]; 0.5 µM (≈ 1.45 µg/mL) in data set [8]. The Drug uptake entry in data set [4] is listed as “Not Active”.
`CC[C@H](C)[C@H](N)C(=O)N[C@@H](CCCNC(=N)N)C(=O)N1CCC[C@H]1C(=O)N[C@@H](CCCNC(=N)N)C(=O)N1CCC[C@H]1C(=O)N1CCC[C@H]1C(=O)N[C@@H](CCCNC(=N)N)C(=O)N[C@@H](CC(C)C)C(=O)N1CCC[C@H]1C(=O)N[C@@H](CCCNC(=N)N)C(=O)N1CCC[C@H]1C(=O)N[C@@H](CCCNC(=N)N)C(=O)N1CCC[C@H]1C(=O)N[C@@H](CCCNC(=N)N)C(=O)N1CCC[C@H]1C(=O)N[C@@H](CC(C)C)C(=O)N1CCC[C@H]1C(=O)N[C@@H](Cc1ccc(O)cc1)C(=O)N1CCC[C@H]1C(=O)N[C@@H](CCCNC(=N)N)C(=O)N1CCC[C@H]1C(=O)N[C@@H](CSc1ccc2n1[B-](F)(F)[N+]1=CC=CC1=C2)C(=O)O` (H-IRPRPPRLPRPRPRPLPYPRPC(X1)-OH): the Drug uptake entry in [9] and in data set [10] was “Active” each time.
On to `CC[C@H](C)[C@H](NC(=O)[C@H](CCCNC(=N)N)NC(=O)[C@@H](N)CCCNC(=N)N)C(=O)N[C@@H](CCCNC(=N)N)C(=O)N1CCC[C@H]1C(=O)N[C@@H](CCCNC(=N)N)C(=O)N1CCC[C@H]1C(=O)N1CCC[C@H]1C(=O)N[C@@H](CCCNC(=N)N)C(=O)N[C@@H](CC(C)C)C(=O)N1CCC[C@H]1C(=O)N[C@@H](CCCNC(=N)N)C(=O)N1CCC[C@H]1C(=O)N[C@@H](CSc1ccc2n1[B-](F)(F)[N+]1=CC=CC1=C2)C(=O)O` (H-RRIRPRPPRLPRPC(X1)-OH), for which the Drug uptake result is on record as “Not Active” in data set [11]; “Active” in [12]; “Not Active” in data set [13]; “Not Active” in [14]; “Not Active” in [15]. Further, the figures for the MIC in data set [7] and in [8] were 16 µM (≈ 31.4 µg/mL) and 8 µM (≈ 15.7 µg/mL), respectively.
On to `CC[C@H](C)[C@H](NC(=O)[C@H](CCCNC(N)=O)NC(=O)[C@@H](N)CCCNC(N)=O)C(=O)N[C@@H](CCCNC(=N)N)C(=O)N1CCC[C@H]1C(=O)N[C@@H](CCCNC(=N)N)C(=O)N1CCC[C@H]1C(=O)N1CCC[C@H]1C(=O)N[C@@H](CCCNC(=N)N)C(=O)N[C@@H](CC(C)C)C(=O)N1CCC[C@H]1C(=O)N[C@@H](CCCNC(=N)N)C(=O)N1CCC[C@H]1C(=O)N[C@@H](CCCNC(=N)N)C(=O)N1CCC[C@H]1C(=O)N[C@@H](CCCNC(=N)N)C(=O)N1CCC[C@H]1C(=O)N[C@@H](CC(C)C)C(=O)N1CCC[C@H]1C(=O)N[C@@H](Cc1ccc(O)cc1)C(=O)N1CCC[C@H]1C(=O)N[C@@H](CCCNC(=N)N)C(=O)N1CCC[C@H]1C(=O)O` (H-[Cit][Cit]IRPRPPRLPRPRPRPLPYPRP-OH), for which the Drug uptake entry in data set [9] and in data set [10] was “Active” each time. The MIC was 32 µM (≈ 92.8 µg/mL) in data set [2], > 64 µM in data set [3], 8 µM (≈ 23.2 µg/mL) in [6] and 32 µM (≈ 92.8 µg/mL) in [7]. The outcome in [16] and in data set [17] was Active.

The MIC is the lowest concentration found to suppress growth. Read a low MIC as greater potency.

The values are drawn from ChEMBL document CHEMBL3407397, “Effect of size and N-terminal residue characteristics on bacterial cell penetration and antibacterial activity of the proline-rich peptide Bac7” (J Med Chem, 2015).
